# Results as given in US10392368B2, “Pyrazolo and triazolo bicyclic compounds as JAK kinase inhibitors” (THERAVANCE BIOPHARMA R&D IP, LLC, priority 2017, dated 2019).
# Like-named read-outs stand apart in the source and are kept apart here.
# Columns and labels:
# JAK1 = target: T1, JAK1 (Homo sapiens, UniProt P23458); experiment: Biochemical JAK1 kinase assay (LanthaScreen); details: for Ki: read-out: JAK 1 (pKi) (converted)
# T1 construct: GST; purchased Life Technologies
# Summary of the method: (§1)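 Recombinant GST-tagged JAK enzymes with GFP-STAT1 peptide substrate in 50 mM HEPES pH 7.5, 10 mM MgCl2, 1 mM EGTA, 0.01% Brij-35; compounds pre-incubated 1 h, then ATP added, 1 h reaction at ambient temperature. TR-FRET (Tb-anti-pSTAT1 pTyr701, 520/495 nm) after EDTA stop; IC50 by 4-parameter fit, converted to pKi via Cheng-Prusoff.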
# [1] = system: IL-2 stimulated pSTAT5 in Tall-1 T cells; experiment: Cellular JAK3 potency assay: inhibition of IL-2 stimulated pSTAT5 in Tall-1 T cells; assay type: cell-based, human; details: for IC50: Homo sapiens, read-out: Tall-1 (pIC50) (converted)
# Summary of the method: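 Tall-1 human T cells were preincubated with compound for 1 h at 37° C, then stimulated with IL-2 (300 ng/ml final) for 30 min. STAT5 phosphorylation in lysates was read by AlphaLisa bead emission, and IC50 from inhibition curves is given as pIC50 (mean±SD).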
# JAK3 = target: T2, JAK3 (Homo sapiens, UniProt P52333); experiment: Biochemical JAK3 kinase assay (LanthaScreen); parameters: GST; purchased Life Technologies; details: for Ki: read-out: JAK 3 (pKi) (converted)
# T2 sequence (P52333 1-1124): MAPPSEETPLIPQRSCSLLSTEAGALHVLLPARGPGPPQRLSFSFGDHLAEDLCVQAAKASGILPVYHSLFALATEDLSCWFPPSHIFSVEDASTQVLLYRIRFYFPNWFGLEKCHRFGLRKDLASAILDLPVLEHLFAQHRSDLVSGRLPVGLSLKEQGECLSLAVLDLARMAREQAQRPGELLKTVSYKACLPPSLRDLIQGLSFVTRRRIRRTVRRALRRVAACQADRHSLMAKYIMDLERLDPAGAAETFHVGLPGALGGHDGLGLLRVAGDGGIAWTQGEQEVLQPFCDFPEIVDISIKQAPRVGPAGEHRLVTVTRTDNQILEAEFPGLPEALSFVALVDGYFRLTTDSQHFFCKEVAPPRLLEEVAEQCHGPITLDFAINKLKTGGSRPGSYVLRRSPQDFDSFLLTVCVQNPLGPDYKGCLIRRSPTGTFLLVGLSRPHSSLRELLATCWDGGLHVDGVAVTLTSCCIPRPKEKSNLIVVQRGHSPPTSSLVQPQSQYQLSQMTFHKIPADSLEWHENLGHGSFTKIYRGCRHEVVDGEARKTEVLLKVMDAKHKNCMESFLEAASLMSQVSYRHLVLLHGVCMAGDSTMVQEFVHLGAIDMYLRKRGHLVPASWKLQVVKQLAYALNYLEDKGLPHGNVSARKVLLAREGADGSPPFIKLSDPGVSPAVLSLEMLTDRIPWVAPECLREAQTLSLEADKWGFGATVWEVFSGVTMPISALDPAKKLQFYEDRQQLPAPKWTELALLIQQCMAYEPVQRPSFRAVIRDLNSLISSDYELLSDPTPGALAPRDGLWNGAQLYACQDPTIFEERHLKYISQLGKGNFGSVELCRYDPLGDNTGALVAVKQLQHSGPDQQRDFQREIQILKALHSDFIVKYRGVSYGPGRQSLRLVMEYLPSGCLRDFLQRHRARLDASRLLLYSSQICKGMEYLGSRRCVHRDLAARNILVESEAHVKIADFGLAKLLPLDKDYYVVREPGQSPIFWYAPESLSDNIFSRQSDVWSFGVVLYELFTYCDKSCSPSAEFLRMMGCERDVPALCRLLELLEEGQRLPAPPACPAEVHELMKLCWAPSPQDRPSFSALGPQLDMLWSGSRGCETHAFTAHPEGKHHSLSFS
# Summary of the method: as §1
# [2] = IL-2 stimulated pSTAT5, Tall-1 T cells
# [3] = selectivity JAK3 over JAK1, difference of pKi
# [4] = IL-2 stimulated pSTAT5 in Tall-1 T cells
# [5] = selectivity: difference of pKi JAK3 and pKi JAK1
# [6] = TALL-1, IL-2 stimulated pSTAT5, Tall-1 T cells
# [7] = TALL-1, IL-2 stimulated pSTAT5 in Tall-1 T cells
# T1 sequence (P23458 whole entry): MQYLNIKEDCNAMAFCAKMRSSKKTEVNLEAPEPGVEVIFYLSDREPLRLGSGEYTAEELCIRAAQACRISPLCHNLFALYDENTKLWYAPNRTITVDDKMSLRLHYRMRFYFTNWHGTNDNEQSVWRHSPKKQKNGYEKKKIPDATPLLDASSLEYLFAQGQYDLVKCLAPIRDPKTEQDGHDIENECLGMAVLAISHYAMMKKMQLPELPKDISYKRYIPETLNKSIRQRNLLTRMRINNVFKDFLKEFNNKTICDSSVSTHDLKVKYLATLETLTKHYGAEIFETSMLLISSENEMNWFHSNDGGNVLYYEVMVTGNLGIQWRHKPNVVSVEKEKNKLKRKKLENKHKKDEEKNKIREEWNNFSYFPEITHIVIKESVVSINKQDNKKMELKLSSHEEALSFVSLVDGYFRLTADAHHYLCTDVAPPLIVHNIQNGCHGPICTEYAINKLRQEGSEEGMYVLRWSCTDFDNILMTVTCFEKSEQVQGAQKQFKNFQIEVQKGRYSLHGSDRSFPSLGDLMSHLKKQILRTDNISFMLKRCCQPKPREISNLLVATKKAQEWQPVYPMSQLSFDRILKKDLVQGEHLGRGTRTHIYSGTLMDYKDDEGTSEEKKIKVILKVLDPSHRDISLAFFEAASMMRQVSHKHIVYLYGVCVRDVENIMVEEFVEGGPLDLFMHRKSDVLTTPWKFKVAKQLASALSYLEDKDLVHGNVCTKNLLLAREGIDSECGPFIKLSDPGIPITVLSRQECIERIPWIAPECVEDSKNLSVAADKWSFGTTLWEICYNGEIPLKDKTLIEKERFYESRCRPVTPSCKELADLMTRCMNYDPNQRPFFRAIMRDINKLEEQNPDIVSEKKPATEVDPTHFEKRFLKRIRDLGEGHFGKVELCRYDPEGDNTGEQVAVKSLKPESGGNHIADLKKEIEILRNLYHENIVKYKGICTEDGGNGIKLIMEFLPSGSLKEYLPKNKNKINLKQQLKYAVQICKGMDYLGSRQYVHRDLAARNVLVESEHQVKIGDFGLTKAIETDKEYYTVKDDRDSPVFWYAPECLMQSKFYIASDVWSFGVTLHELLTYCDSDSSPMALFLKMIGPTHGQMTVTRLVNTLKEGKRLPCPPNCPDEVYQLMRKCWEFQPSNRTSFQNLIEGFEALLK
structure (smiles),measurement,setting,value
C=CC(=O)N1CCCC(Oc2cc(-c3ccc(O)cc3)nc3[nH]ncc23)C1 (centres unmarked) [Compound 8-6],JAK 1 (pKi),JAK1,E (a pKi value of 7 or below (Ki of 100 nM or above))
same,Tall-1 (pIC50),[1]; [2],B (a pIC50 value between 6.7 (included) and 7.5 (IC50 between 200 nM and 32 nM))
same,JAK 3 (pKi),JAK3,B (a pKi value between 9 and 10 (Ki between 1 nM and 0.1 nM))
same,JAK3 (pKi)-JAK1 (pKi),JAK3; [3],A (a value of 3 or above)
C=CC(=O)N1C2CCC1CC(Oc1nc(-c3ccc(O)c(F)c3)cc3[nH]ncc13)C2 (centres unmarked) [Compound 9-10],JAK 1 (pKi),JAK1,E (a pKi value of 7 or below (Ki of 100 nM or above))
same,Tall-1 (pIC50),[1]; [2],A (a pIC50 value≥7.5 (IC50≤32 nM))
same,JAK 3 (pKi),JAK3,B (a pKi value between 9 and 10 (Ki between 1 nM and 0.1 nM))
same,JAK3 (pKi)-JAK1 (pKi),JAK3; [3],A (a value of 3 or above)
CN(C)C/C=C/C(=O)N1CC(Oc2cc(-c3ccc(O)cc3)cc3[nH]ncc23)C1 [Compound 5-1],JAK 1 (pKi),JAK1,E (a pKi value of 7 or below (Ki of 100 nM or above))
same,Tall-1 (pIC50),[1]; [4],C (a pIC50 value between 6 and 6.7 (IC50 between 1 μM and 200 nM))
same,JAK 3 (pKi),JAK3,B (a pKi value between 9 and 10 (Ki between 1 nM and 0.1 nM))
same,JAK3 (pKi)-JAK1 (pKi),JAK3; [5],A (a value of 3 or above)
C=CC(=O)N1CC[C@@H](Sc2cc(-c3ccc(O)cc3)cc3[nH]ncc23)C1 [Compound 12-2],JAK 1 (pKi),JAK1,E (a pKi value of 7 or below (Ki of 100 nM or above))
same,Tall-1 (pIC50),[1]; [2],B (a pIC50 value between 6.7 (included) and 7.5 (IC50 between 200 nM and 32 nM))
same,JAK 3 (pKi),JAK3,B (a pKi value between 9 and 10 (Ki between 1 nM and 0.1 nM))
same,JAK3 (pKi)-JAK1 (pKi),JAK3; [3],B (a value of 2.3 to 3)
C=CC(=O)N1CC[C@H](COc2cc(-c3ccc(O)cc3)nc3[nH]ncc23)C1 [Compound 2-6],JAK 1 (pKi),JAK1,E (a pKi value of 7 or below (Ki of 100 nM or above))
same,Tall-1 (pIC50),[1]; [4],C (a pIC50 value between 6 and 6.7 (IC50 between 1 μM and 200 nM))
same,JAK 3 (pKi),JAK3,A (a pKi value≥10 (Ki≤0.1 nM))
same,JAK3 (pKi)-JAK1 (pKi),JAK3; [5],A (a value of 3 or above)
CN(C)CC=CC(=O)N1C2CCC1CC(Oc1cc(-c3ccc(O)cc3)cc3[nH]ncc13)C2 (centres unmarked) [Compound 10-1],JAK 1 (pKi),JAK1,D (a pKi value between 7 and 8 (Ki between 100 nM and 10 nM))
same,Tall-1 (pIC50),[1]; [2],B (a pIC50 value between 6.7 (included) and 7.5 (IC50 between 200 nM and 32 nM))
same,JAK 3 (pKi),JAK3,A (a pKi value≥10 (Ki≤0.1 nM))
same,JAK3 (pKi)-JAK1 (pKi),JAK3; [3],B (a value of 2.3 to 3)
C=CC(=O)N1CC(C)(Oc2cc(-c3ccc(O)c(F)c3)cc3[nH]ncc23)C1 [Compound 5-24],JAK 1 (pKi),JAK1,E (a pKi value of 7 or below (Ki of 100 nM or above))
same,Tall-1 (pIC50),[1]; [2],B (a pIC50 value between 6.7 (included) and 7.5 (IC50 between 200 nM and 32 nM))
same,JAK 3 (pKi),JAK3,B (a pKi value between 9 and 10 (Ki between 1 nM and 0.1 nM))
same,JAK3 (pKi)-JAK1 (pKi),JAK3; [3],A (a value of 3 or above)
C=CC(=O)N1CC[C@H](Nc2cc(-c3ccc(O)cc3)cc3[nH]ncc23)C[C@@H]1C [Compound 12-15],Ki,JAK1,> 100 nM
same,IC50,[1]; [6],31.6 to 200 nM
same,Ki,JAK3,0.1 to 1 nM
same,JAK3 (pKi)-JAK1 (pKi),JAK3; [3],B (a value of 2.3 to 3)
Cc1n[nH]c2cc(-c3ccc(O)cc3)cc(OCC3CN(C(=O)/C=C/CN(C)C)C3)c12 [Compound 18-4],Ki,JAK1,10 to 100 nM
same,IC50,[1]; [6],31.6 to 200 nM
same,Ki,JAK3,< 0.1 nM
same,JAK3 (pKi)-JAK1 (pKi),JAK3; [3],B (a value of 2.3 to 3)
C=CC(=O)N1CCC(C)(Oc2cc(-c3ccc(O)c(F)c3)cc3[nH]ncc23)CC1 [Compound 6-7],Ki,JAK1,> 100 nM
same,IC50,[1]; [6],< 31.6 nM
same,Ki,JAK3,0.1 to 1 nM
same,JAK3 (pKi)-JAK1 (pKi),JAK3; [3],A (a value of 3 or above)
CN(C)C/C=C/C(=O)N1CCC(Sc2cc(-c3ccc(O)cc3)cc3[nH]ncc23)CC1 [Compound 12-5],Ki,JAK1,> 100 nM
same,IC50,[1]; [6],31.6 to 200 nM
same,Ki,JAK3,0.1 to 1 nM
same,JAK3 (pKi)-JAK1 (pKi),JAK3; [3],B (a value of 2.3 to 3)
C=CC(=O)N1CCCC(Oc2cc(-c3ccc(O)c(F)c3)nc3[nH]ncc23)C1 (centres unmarked) [Compound 8-8],JAK 1 (pKi),JAK1,E (a pKi value of 7 or below (Ki of 100 nM or above))
same,Tall-1 (pIC50),[1]; [2],B (a pIC50 value between 6.7 (included) and 7.5 (IC50 between 200 nM and 32 nM))
same,JAK 3 (pKi),JAK3,A (a pKi value≥10 (Ki≤0.1 nM))
same,JAK3 (pKi)-JAK1 (pKi),JAK3; [3],A (a value of 3 or above)
CN(C)C/C=C/C(=O)N1CC[C@@H]1COc1cc(-c2ccc(O)cc2)cc2[nH]ncc12 [Compound 12-22],Ki,JAK1,> 100 nM
same,IC50,[1]; [6],200 to 1000 nM
same,Ki,JAK3,0.1 to 1 nM
same,JAK3 (pKi)-JAK1 (pKi),JAK3; [3],A (a value of 3 or above)
C=CC(=O)N1CCC(Oc2cc(-c3ccc(O)cc3)cc3[nH]nnc23)C1 (centres unmarked) [Compound 17-2],JAK 1 (pKi),JAK1,E (a pKi value of 7 or below (Ki of 100 nM or above))
same,Tall-1 (pIC50),[1]; [2],C (a pIC50 value between 6 and 6.7 (IC50 between 1 μM and 200 nM))
same,JAK 3 (pKi),JAK3,A (a pKi value≥10 (Ki≤0.1 nM))
same,JAK3 (pKi)-JAK1 (pKi),JAK3; [3],A (a value of 3 or above)
C=CC(=O)N1CC[C@H](Oc2nc(-c3ccc(O)cc3)nc3[nH]nc(C(F)F)c23)C1 [Compound 1-25],Ki,JAK1,> 100 nM
same,IC50,[1]; [7],31.6 to 200 nM
same,Ki,JAK3,0.1 to 1 nM
same,JAK3 (pKi)-JAK1 (pKi),JAK3; [5],A (a value of 3 or above)
C=CC(=O)N1CC(CC)(COc2cc(-c3ccc(O)cc3)cc3[nH]ncc23)C1 [Compound 3-14],JAK 1 (pKi),JAK1,E (a pKi value of 7 or below (Ki of 100 nM or above))
same,Tall-1 (pIC50),[1]; [4],B (a pIC50 value between 6.7 (included) and 7.5 (IC50 between 200 nM and 32 nM))
same,JAK 3 (pKi),JAK3,B (a pKi value between 9 and 10 (Ki between 1 nM and 0.1 nM))
same,JAK3 (pKi)-JAK1 (pKi),JAK3; [5],A (a value of 3 or above)
C=CC(=O)N1CCC[C@H](Oc2nc(-c3ccc(O)c(Cl)c3)cc3[nH]ncc23)C1 [Compound 8-10],JAK 1 (pKi),JAK1,D (a pKi value between 7 and 8 (Ki between 100 nM and 10 nM))
same,Tall-1 (pIC50),[1]; [2],A (a pIC50 value≥7.5 (IC50≤32 nM))
same,JAK 3 (pKi),JAK3,A (a pKi value≥10 (Ki≤0.1 nM))
same,JAK3 (pKi)-JAK1 (pKi),JAK3; [3],A (a value of 3 or above)
C=CC(=O)N1CC[C@H](Oc2nc(-c3ccc(O)cc3)nc3[nH]ncc23)C1 [Compound 1-6],Ki,JAK1,> 100 nM
same,IC50,[1]; [7],200 to 1000 nM
same,Ki,JAK3,0.1 to 1 nM
same,JAK3 (pKi)-JAK1 (pKi),JAK3; [5],A (a value of 3 or above)
CN(C)C/C=C/C(=O)N1CCC(Oc2cc(-c3ccc(O)cc3)cc3[nH]ncc23)CC1 [Compound 6-1],Ki,JAK1,10 to 100 nM
same,IC50,[1]; [6],31.6 to 200 nM
same,Ki,JAK3,< 0.1 nM
same,JAK3 (pKi)-JAK1 (pKi),JAK3; [3],B (a value of 2.3 to 3)
C=CC(=O)N1CC(COc2cc(-c3ccc(O)c(Cl)c3)cc3[nH]nc(C)c23)C1 [Compound 18-6],Ki,JAK1,10 to 100 nM
same,IC50,[1]; [6],< 31.6 nM
same,Ki,JAK3,0.1 to 1 nM
same,JAK3 (pKi)-JAK1 (pKi),JAK3; [3],B (a value of 2.3 to 3)
